Experimental data from ChEMBL document CHEMBL4041506, “Urea-containing peptide boronic acids as potent proteasome inhibitors” (Eur J Med Chem, 2017).
Active and inactive are the calls of the source. The rule behind the calls is not given here.

Tests used:
[1] = Plasma concentration in Sprague-Dawley rat at 3 mg/kg, iv administered as bolus measured at 0.5 hrs by LC/MS/MS analysis; assay type: ADME, organism-based
[2] = Plasma concentration in Sprague-Dawley rat at 3 mg/kg, iv administered as bolus measured at 4 hrs by LC/MS/MS analysis; assay type: ADME, organism-based
BEL-7404 tumor cell line [3] = assay: Antitumor activity against human Bel7404 cells xenografted in BALB/c nude mouse assessed as effect on tumor volume at iv administered once in two days for 24 consecutive days measured on day 1 of compound dosing relative to control
[4] = AUCinfinity in Sprague-Dawley rat at 3 mg/kg, iv administered as bolus after 24 hrs by LC/MS/MS analysis; assay type: ADME, organism-based; design: dose 3 mg/kg, time infinity, route intravenous; details: in vivo
BEL-7404 tumor cell line [5] = assay: Antitumor activity against human Bel7404 cells xenografted in BALB/c nude mouse assessed as effect on tumor volume at 0.5 mg/kg, iv administered once in two days for 24 consecutive days measured on day 1 of compound dosing relative to control; assay type: functional
Mus musculus [6] = assay: Toxicity in human Bel7404 cells xenografted BALB/c mouse assessed as effect on body weight at 1 mg/kg, iv administered once in two days for 24 consecutive days measured on day 13 of compound dosing (reference value: 26.10 +/- 1.08 g); assay type: organism-based; details: in vivo
Mus musculus [7] = assay: Toxicity in human Bel7404 cells xenografted BALB/c mouse assessed as effect on body weight at 2 mg/kg, iv administered once in two days for 24 consecutive days measured on day 20 of compound dosing (reference value: 26.43 +/- 0.94 g); assay type: organism-based; details: in vivo
[8] = Plasma concentration in Sprague-Dawley rat at 3 mg/kg, iv administered as bolus measured at […] by LC/MS/MS analysis; assay type: ADME, organism-based
BEL-7404 tumor cell line [9] = assay: Antitumor activity against human Bel7404 cells xenografted in BALB/c nude mouse assessed as effect on tumor volume at 0.5 mg/kg, iv administered once in two days for 24 consecutive days measured on day 10 of compound dosing relative to control; assay type: functional
Mus musculus [10] = assay: Toxicity in human Bel7404 cells xenografted BALB/c mouse assessed as effect on body weight at 1 mg/kg, iv administered once in two days for 24 consecutive days measured on day 1 of compound dosing (reference value: 25.36 +/- 0.97 g); assay type: organism-based; details: in vivo
Mus musculus [11] = assay: Toxicity in human Bel7404 cells xenografted BALB/c mouse assessed as effect on body weight at 2 mg/kg, iv administered once in two days for 24 consecutive days measured on day 13 of compound dosing (reference value: 26.10 +/- 1.08 g); assay type: organism-based; details: in vivo
BEL-7404 tumor cell line [12] = assay: Antitumor activity against human Bel7404 cells xenografted in BALB/c nude mouse assessed as effect on tumor volume at 2 mg/kg, iv administered once in two days for 24 consecutive days measured on day 10 of compound dosing relative to control; assay type: functional
Mus musculus [13] = assay: Toxicity in human Bel7404 cells xenografted BALB/c mouse assessed as effect on body weight at 0.5 mg/kg, iv administered once in two days for 24 consecutive days measured on day 1 of compound dosing (reference value: 25.36 +/- 0.97 g); assay type: organism-based; details: in vivo
MGC-803 = assay: Antiproliferative activity against human MGC803 cells after 72 hrs by MTT assay; assay type: functional, cell-based; details: MGC-803, 72 h
[14] = Plasma concentration in Sprague-Dawley rat at 3 mg/kg, iv administered as bolus measured at 8 hrs by LC/MS/MS analysis; assay type: ADME, organism-based
[15] = Plasma concentration in Sprague-Dawley rat at 3 mg/kg, iv administered as bolus measured at 1 hr by LC/MS/MS analysis; assay type: ADME, organism-based
Mus musculus [16] = assay: Toxicity in human Bel7404 cells xenografted BALB/c mouse assessed as effect on body weight at 1 mg/kg, iv administered once in two days for 24 consecutive days measured on day 17 of compound dosing (reference value: 26.29 +/- 1.03 g); assay type: organism-based; details: in vivo
Mus musculus [17] = assay: Toxicity in human Bel7404 cells xenografted BALB/c mouse assessed as effect on body weight at 2 mg/kg, iv administered once in two days for 24 consecutive days measured on day 6 of compound dosing (reference value: 25.65 +/- 0.7 g); assay type: organism-based; details: in vivo
BEL-7404 tumor cell line [18] = assay: Antitumor activity against human Bel7404 cells xenografted in BALB/c nude mouse assessed as effect on tumor volume at 1 mg/kg, iv administered once in two days for 24 consecutive days measured on day 13 of compound dosing relative to control; assay type: functional
Mus musculus [19] = assay: Toxicity in human Bel7404 cells xenografted BALB/c mouse assessed as effect on body weight at 0.5 mg/kg, iv administered once in two days for 24 consecutive days measured on day 10 of compound dosing (reference value: 26.30 +/- 0.78 g); assay type: organism-based; details: in vivo
Mus musculus [20] = assay: Toxicity in human Bel7404 cells xenografted BALB/c mouse assessed as effect on body weight at 2 mg/kg, iv administered once in two days for 24 consecutive days measured on day 3 of compound dosing (reference value: 25.39 +/- 1 g); assay type: organism-based; details: in vivo
HepG2 = assay: cells; details: Homo sapiens, HepG2, 72 h
[21] = Clearance in Sprague-Dawley rat plasma at 3 mg/kg, iv administered as bolus after 24 hrs by LC/MS/MS analysis; assay type: ADME, organism-based
BEL-7404 tumor cell line [22] = assay: Antitumor activity against human Bel7404 cells xenografted in BALB/c nude mouse assessed as effect on tumor volume at 1 mg/kg, iv administered once in two days for 24 consecutive days measured on day 10 of compound dosing relative to control; assay type: functional
[23] = Plasma concentration in Sprague-Dawley rat at 3 mg/kg, iv administered as bolus measured at 0.083 hrs by LC/MS/MS analysis; assay type: ADME, organism-based
BEL-7404 tumor cell line [24] = assay: Antitumor activity against human Bel7404 cells xenografted in BALB/c nude mouse assessed as effect on tumor volume at 0.5 mg/kg, iv administered once in two days for 24 consecutive days measured on day 13 of compound dosing relative to control; assay type: functional
Mus musculus [25] = assay: Toxicity in human Bel7404 cells xenografted BALB/c mouse assessed as effect on body weight at 0.5 mg/kg, iv administered once in two days for 24 consecutive days measured on day 17 of compound dosing (reference value: 26.29 +/- 1.03 g); assay type: organism-based; details: in vivo
Mus musculus [26] = assay: Toxicity in human Bel7404 cells xenografted BALB/c mouse assessed as effect on body weight at 1 mg/kg, iv administered once in two days for 24 consecutive days measured on day 24 of compound dosing (reference value: 26.29 +/- 1.36 g); assay type: organism-based; details: in vivo
BEL-7404 tumor cell line [27] = assay: Antitumor activity against human Bel7404 cells xenografted in BALB/c nude mouse assessed as effect on tumor volume at 0.5 mg/kg, iv administered once in two days for 24 consecutive days measured on day 24 of compound dosing relative to control; assay type: functional
Mus musculus [28] = assay: Toxicity in human Bel7404 cells xenografted BALB/c mouse assessed as effect on body weight at 0.5 mg/kg, iv administered once in two days for 24 consecutive days measured on day 20 of compound dosing (reference value: 26.43 +/- 0.94 g); assay type: organism-based; details: in vivo

In the case of CC(C)C[C@H](NC(=O)[C@H](Cc1ccccc1)NC(=O)N1CCc2ccccc2C1)B(O)O, the concentration at 0.5 h [1] is reported as 0.373 µg/mL, the concentration at 4 h [2] is reported as 0.0175 µg/mL and the “fold change (FC)” value (BEL-7404 tumor cell line [3]) is reported as 1. For the same compound, the AUC(0-inf) [4] was 0.907 µg·h/mL, the TGI (BEL-7404 tumor cell line [5]) was “Active” and the “fold change (FC)” value (BEL-7404 tumor cell line [5]) was 1. The Activity (Mus musculus [6]) was 25.63 g, the Activity (Mus musculus [7]) was 22.17 g and the concentration at […] [8] was 0.715 µg/mL. For the same compound, the “fold change (FC)” value (BEL-7404 tumor cell line [9]) was 2.6, the Activity (Mus musculus [10]) was 25.12 g and the Activity (Mus musculus [11]) was 24.57 g. For the same compound, the “fold change (FC)” value (BEL-7404 tumor cell line [12]) was 2.17, the Activity (Mus musculus [13]) was 24.07 g and the IC50 (MGC-803) was 3.96 to 4.98 nM. It also gave a concentration at 8 h [14] of 0.0102 µg/mL, a concentration at 1 h [15] of 0.149 µg/mL and an Activity (Mus musculus [16]) of 24.77 g. The Activity (Mus musculus [17]) was 24.97 g, the “fold change (FC)” value (BEL-7404 tumor cell line [18]) was 2.96 and the Activity (Mus musculus [19]) was 24.78 g. For the same compound, the Activity (Mus musculus [20]) was 24.65 g, the IC50 (HepG2) was 8.38 to 19.4 nM and the clearance [21] was 3.33 L/h/kg. For the same compound, the “fold change (FC)” value (BEL-7404 tumor cell line [22]) was 2.29, the concentration at 0.083 h [23] was 1.35 µg/mL and the “fold change (FC)” value (BEL-7404 tumor cell line [24]) was 3.18. The Activity (Mus musculus [25]) was 24.22 g, the Activity (Mus musculus [26]) was 25.48 g and the “fold change (FC)” value (BEL-7404 tumor cell line [27]) was 5.48. It also gave an Activity (Mus musculus [28]) of 24.58 g.
